Reference: US8389513B2, “2-amino-5,5-difluoro-5,6-dihydro-4H-[1,3]oxazin-4-yl)-phenyl]-amides” (Hoffmann-La Roche Inc., priority 2009, dated 2013)
Counter-ions that a name gives are not always drawn.

target: T1, BACE1 (Homo sapiens, UniProt P56817); test: Cellular Aβ-lowering assay (Aβ40 ELISA); type: cell-based; conditions: HEK293 cells stably expressing human APP695; Aβ40 in culture supernatant; read-out: BACE1 cell act. Aβ40 IC50
T1 construct: Human HEK293 cells which are stably transfected with a vector expressing a cDNA of the human APP wt gene (APP695); endogenous in cells; host or cells: HEK293 stably transfected with human APP695 wt
Procedure: Cellular Aβ-Lowering Assay:
Human HEK293 cells which are stably transfected with a vector expressing a cDNA of the human APP wt gene (APP695) were used to assess the potency of the compounds in a cellular assay. The cells were seeded in 96-well microtiter plates in cell culture medium (Iscove, plus 10% (v/v) fetal bovine serum, glutamine, penicillin/streptomycin) to about 80% confluence and the compounds were added at a 10× concentration in 1/10 volume of medium without FCS containing 8% DMSO (final concentration of DMSO was kept at 0.8% v/v). After 18-20 hrs incubation at 37° C. and 5% CO2 in a humidified incubator the culture supernatant was harvested for the determination of Aβ40 concentrations. […] Subsequently the wells of the microtiter plate were washed extensively with Tris-buffered saline containing 0.05% Tween 20 and the assay was developed with tetramethylbenzidine/H2O2 in citric acid buffer. After stopping the reaction with one volume 1 NH2SO4 the reaction was measured in an ELISA reader at 450 nm wavelength. The concentrations of Aβ in the culture supernatants were calculated from a standard curve obtained with known amounts of pure Aβ peptide.

T1 sequence (P56817 46-501): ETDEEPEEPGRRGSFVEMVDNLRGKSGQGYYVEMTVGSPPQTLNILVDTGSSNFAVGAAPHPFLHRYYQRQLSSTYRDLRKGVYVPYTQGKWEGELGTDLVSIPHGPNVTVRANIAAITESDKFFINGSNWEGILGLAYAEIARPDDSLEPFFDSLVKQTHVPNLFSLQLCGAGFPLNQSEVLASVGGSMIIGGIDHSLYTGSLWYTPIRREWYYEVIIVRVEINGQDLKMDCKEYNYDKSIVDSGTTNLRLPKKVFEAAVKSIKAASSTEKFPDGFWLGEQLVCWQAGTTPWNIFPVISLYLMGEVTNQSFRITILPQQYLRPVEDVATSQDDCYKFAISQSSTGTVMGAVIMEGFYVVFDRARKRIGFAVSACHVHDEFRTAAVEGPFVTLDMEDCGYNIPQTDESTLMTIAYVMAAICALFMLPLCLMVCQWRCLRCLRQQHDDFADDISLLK

IC50 [nM]	Structure (SMILES)
910	C[C@]1(c2cc(NC(=O)/C=C/c3ccco3)ccc2F)N=C(N)OCC1(F)F [Example 82, (E)-N-[3-((R)-2-Amino-5,5-difluoro-4-methyl-5,6-dihydro-4H-[1,3]oxazin-4-yl)-4-fluoro-phenyl]-3-furan-2-yl-acrylamide]
230	CC1(C)OC(N)=N[C@](C)(c2cc(NC(=O)c3ccc(OCC(F)(F)C(F)F)cn3)ccc2F)C1(F)F [Example 30, 5-(2,2,3,3-Tetrafluoro-propoxy)-pyridine-2-carboxylic acid [3-((R)-2-amino-5,5-difluoro-4,6,6-trimethyl-5,6-dihydro-4H-[1,3]oxazin-4-yl)-4-fluoro-phenyl]-amide]
495	C[C@]1(c2cc(NC(=O)c3cocn3)ccc2F)N=C(N)OCC1(F)F [Example 55, Oxazole-4-carboxylic acid [3-((R)-2-amino-5,5-difluoro-4-methyl-5,6-dihydro-4H-[1,3]oxazin-4-yl)-4-fluoro-phenyl]-amide]
70	C[C@]1(c2cc(NC(=O)c3cnc(OCC4CC4)cn3)ccc2F)N=C(N)OCC1(F)F [Example 46, 5-Cyclopropylmethoxy-pyrazine-2-carboxylic acid [3-((R)-2-amino-5,5-difluoro-4-methyl-5,6-dihydro-4H-[1,3]oxazin-4-yl)-4-fluoro-phenyl]-amide]
2460	CC1(C)OC(N)=N[C@](C)(c2cc(NC(=O)c3cnc(OCC4CC4)cn3)ccc2F)C1(F)F [Example 36, 5-Cyclopropylmethoxy-pyrazine-2-carboxylic acid [3-((R)-2-amino-5,5-difluoro-4,6,6-trimethyl-5,6-dihydro-4H-[1,3]oxazin-4-yl)-4-fluoro-phenyl]-amide]
100	CCn1cc(Cl)c(C(=O)Nc2ccc(F)c([C@@]3(C)N=C(N)OCC3(F)F)c2)n1 [Example 77, 4-Chloro-1-ethyl-1H-pyrazole-3-carboxylic acid [3-((R)-2-amino-5,5-difluoro-4-methyl-5,6-dihydro-4H-[1,3]oxazin-4-yl)-4-fluoro-phenyl]-amide]
460	C[C@]1(c2cc(NC(=O)c3ccc(C#CC4CC4)cn3)ccc2F)N=C(N)OCC1(F)F [Example 40, 5-Cyclopropylethynyl-pyridine-2-carboxylic acid [3-((R)-2-amino-5,5-difluoro-4-methyl-5,6-dihydro-4H-[1,3]oxazin-4-yl)-4-fluoro-phenyl]-amide]
180	CC(=O)Nc1ccc(F)c([C@@]2(C)N=C(N)OCC2(F)F)c1 [Example 73, N-[3-((R)-2-Amino-5,5-difluoro-4-methyl-5,6-dihydro-4H-[1,3]oxazin-4-yl)-4-fluoro-phenyl]-acetamide]
1770	C[C@]1(c2cc(NC(=O)c3nn(CC(F)(F)F)cc3Cl)ccc2F)N=C(N)OCC1(F)F [Example 78, 4-Chloro-1-(2,2,2-trifluoro-ethyl)-1H-pyrazole-3-carboxylic acid [3-((R)-2-amino-5,5-difluoro-4-methyl-5,6-dihydro-4H-[1,3]oxazin-4-yl)-4-fluoro-phenyl]-amide]
1900	C[C@]1(c2cc(NC(=O)c3ccc([N+](=O)[O-])o3)ccc2F)N=C(N)OCC1(F)F [Example 81, 5-Nitro-furan-2-carboxylic acid [3-((R)-2-amino-5,5-difluoro-4-methyl-5,6-dihydro-4H-[1,3]oxazin-4-yl)-4-fluoro-phenyl]-amide]
1480	CCc1ocnc1C(=O)Nc1ccc(F)c([C@@]2(C)N=C(N)OCC2(F)F)c1 [Example 69, formate]
3	C[C@]1(c2cc(NC(=O)c3coc(CF)n3)ccc2F)N=C(N)OCC1(F)F [Example 79, 2-Fluoromethyl-oxazole-4-carboxylic acid [3-((R)-2-amino-5,5-difluoro-4-methyl-5,6-dihydro-4H-[1,3]oxazin-4-yl)-4-fluoro-phenyl]-amide formate]
200	CC1(C)OC(N)=N[C@](C)(c2cc(NC(=O)c3ccc(OCC(F)F)cn3)ccc2F)C1(F)F [Example 28, 5-(2,2-Difluoro-ethoxy)-pyridine-2-carboxylic acid [3-((R)-2-amino-5,5-difluoro-4,6,6-trimethyl-5,6-dihydro-4H-[1,3]oxazin-4-yl)-4-fluoro-phenyl]-amide]
2810	CC1(C)OC(N)=N[C@](C)(c2cc(NC(=O)c3ccc(OCC4CC4)nc3)ccc2F)C1(F)F [Example 31, N-[3-((R)-2-Amino-5,5-difluoro-4,6,6-trimethyl-5,6-dihydro-4H-[1,3]oxazin-4-yl)-4-fluoro-phenyl]-6-cyclopropylmethoxy-nicotinamide]
6	CC1(C)OC(N)=N[C@](C)(c2cc(NC(=O)c3ccn(C(F)F)n3)ccc2F)C1(F)F [Example 38, 1-Difluoromethyl-1H-pyrazole-3-carboxylic acid [3-((R)-2-amino-5,5-difluoro-4,6,6-trimethyl-5,6-dihydro-4H-[1,3]oxazin-4-yl)-4-fluoro-phenyl]-amide]
310	C[C@]1(c2cc(NC(=O)c3ccc(C#N)c[n+]3[O-])ccc2F)N=C(N)OCC1(F)F [Example 83, 5-Cyano-1-oxy-pyridine-2-carboxylic acid [3-((R)-2-amino-5,5-difluoro-4-methyl-5,6-dihydro-4H-[1,3]oxazin-4-yl)-4-fluoro-phenyl]-amide]
230	C[C@]1(c2cc(NC(=O)c3ccc(C(N)=O)cn3)ccc2F)N=C(N)OCC1(F)F [Example 72]
305	Cc1conc1C(=O)Nc1ccc(F)c([C@@]2(C)N=C(N)OCC2(F)F)c1 [Example 61, 4-Methyl-isoxazole-3-carboxylic acid [3-((R)-2-amino-5,5-difluoro-4-methyl-5,6-dihydro-4H-[1,3]oxazin-4-yl)-4-fluoro-phenyl]-amide]
73	C[C@]1(c2cc(NC(=O)c3coc(CCl)n3)ccc2F)N=C(N)OCC1(F)F [Example 57, 2-Chloromethyl-oxazole-4-carboxylic acid [3-((R)-2-amino-5,5-difluoro-4-methyl-5,6-dihydro-4H-[1,3]oxazin-4-yl)-4-fluoro-phenyl]-amide]
140	CCc1nc(C(=O)Nc2ccc(F)c([C@@]3(C)N=C(N)OCC3(F)F)c2)co1 [Example 56, 2-Ethyl-oxazole-4-carboxylic acid [3-((R)-2-amino-5,5-difluoro-4-methyl-5,6-dihydro-4H-[1,3]oxazin-4-yl)-4-fluoro-phenyl]-amide]

target: T2, BACE2 (Rattus norvegicus, UniProt Q6IE75); test: Assay for BACE inhibition by measuring cellular TMEM27 cleavage; type: cell-based; conditions: INS-TMEM27 cells (INS1e-derived); shed TMEM27 by ELISA; read-out: BACE2 cell act. IC50
T2 construct: endogenous cellular BACE2 in the Ins1e rat cell line; endogenous in cells; host or cells: INS-TMEM27 (INS1e-derived rat cell line with TetOn-inducible full-length hTMEM27)
T2 sequence (Q6IE75 63-514): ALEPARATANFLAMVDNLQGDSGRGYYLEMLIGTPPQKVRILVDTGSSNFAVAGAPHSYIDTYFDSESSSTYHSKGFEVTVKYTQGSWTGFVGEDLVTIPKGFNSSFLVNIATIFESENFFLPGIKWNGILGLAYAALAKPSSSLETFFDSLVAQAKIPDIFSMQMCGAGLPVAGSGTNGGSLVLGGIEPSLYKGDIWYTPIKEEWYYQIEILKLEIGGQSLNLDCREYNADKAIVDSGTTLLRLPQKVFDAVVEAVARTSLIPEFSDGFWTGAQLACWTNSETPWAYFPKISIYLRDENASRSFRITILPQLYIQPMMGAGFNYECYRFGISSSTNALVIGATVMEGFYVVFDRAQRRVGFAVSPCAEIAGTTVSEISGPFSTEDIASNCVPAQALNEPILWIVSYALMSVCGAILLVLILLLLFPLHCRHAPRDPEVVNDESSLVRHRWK
Excerpt: Assay for BACE Inhibition by Measuring Cellular TMEM27 Cleavage:
The assay uses the principle of inhibition of human TMEM27 cleavage by endogenous cellular BACE2 in the Ins1e rat cell line and shedding from the cell surface into the culture medium, followed by detection in an ELISA assay. Inhibition of BACE2 prevents the cleavage and shedding in a dose-dependent manner.
The stable cell line “INS-TMEM27” represents an INS1e-derived cell line with inducible expression (using the TetOn system) of full-length hTMEM27 in a doxycycline-dependent manner. The cells are cultured throughout the experiment in RPMI1640+Glutamax (Invitrogen) Penicillin/Streptomycin, 10% Fetal bovine serum, […] pyruvate, […] beta-mercatptoethanol, 100 micrograms/ml G418 and 100 microgram/ml hygromycin and are grown inadherent culture at 37° C. in a standard CO2 cell culture incubator. INS-TMEM27 cells are seeded in 96-well plates. After 2 days in culture, BACE2 inhibitor is added in a range of concentrations as required by the assay and after a further two hours, doxycycline is added to a final concentration of 500 ng/ml. The cells are incubated for a further 46 hours and the supernatant harvested for detection of shed TMEM27.
An ELISA assay (using a pair of mouse anti-human-TMEM27 antibodies, raised against the extracellular domain of TMEM27) is used for detection of TMEM27 in the culture medium. An EC50 for BACE2 inhibition is calculated using the ELISA readout for each inhibitor concentration with standard curve-fitting software such as XLFit for the Excel spreadsheet program.

IC50 [nM]	Structure (SMILES)
13	C[C@]1(c2cc(NC(=O)c3ccn(C(F)F)n3)ccc2F)N=C(N)OCC1(F)F [Example 64, 1-Difluoromethyl-1H-pyrazole-3-carboxylic acid [3-((R)-2-amino-5,5-difluoro-4-methyl-5,6-dihydro-4H-[1,3]oxazin-4-yl)-4-fluoro-phenyl]-amide]
82	C[C@]1(c2cc(NC(=O)c3ccccn3)ccc2F)N=C(N)OCC1(F)F [Example 9, Pyridine-2-carboxylic acid [3-((R)-2-amino-5,5-difluoro-4-methyl-5,6-dihydro-4H-[1,3]oxazin-4-yl)-4-fluoro-phenyl]-amide]
56	C[C@]1(c2cc(NC(=O)c3ccc(F)cn3)ccc2F)N=C(N)OCC1(F)F [Example 2, 5-Fluoro-pyridine-2-carboxylic acid [3-((R)-2-amino-5,5-difluoro-4-methyl-5,6-dihydro-4H-[1,3]oxazin-4-yl)-4-fluoro-phenyl]-amide]
